Here are results for two compounds from US12617788B2, “Bridged bicyclic compounds as BTK inhibitors” (Beijing InnoCare Pharma Tech Co., Ltd., priority 2020, dated 2026).

In general, IC50 refers to the concentration needed to halve the response being measured. For orientation: Kp means tissue or fluid exposure divided by exposure in the circulation.

The target in data set [1] is T1, human-derived recombinant BTK protein (Homo sapiens, UniProt Q06187).
T1 construct: purchased Carna Biosciences 08-180
T1 sequence (Q06187 whole entry): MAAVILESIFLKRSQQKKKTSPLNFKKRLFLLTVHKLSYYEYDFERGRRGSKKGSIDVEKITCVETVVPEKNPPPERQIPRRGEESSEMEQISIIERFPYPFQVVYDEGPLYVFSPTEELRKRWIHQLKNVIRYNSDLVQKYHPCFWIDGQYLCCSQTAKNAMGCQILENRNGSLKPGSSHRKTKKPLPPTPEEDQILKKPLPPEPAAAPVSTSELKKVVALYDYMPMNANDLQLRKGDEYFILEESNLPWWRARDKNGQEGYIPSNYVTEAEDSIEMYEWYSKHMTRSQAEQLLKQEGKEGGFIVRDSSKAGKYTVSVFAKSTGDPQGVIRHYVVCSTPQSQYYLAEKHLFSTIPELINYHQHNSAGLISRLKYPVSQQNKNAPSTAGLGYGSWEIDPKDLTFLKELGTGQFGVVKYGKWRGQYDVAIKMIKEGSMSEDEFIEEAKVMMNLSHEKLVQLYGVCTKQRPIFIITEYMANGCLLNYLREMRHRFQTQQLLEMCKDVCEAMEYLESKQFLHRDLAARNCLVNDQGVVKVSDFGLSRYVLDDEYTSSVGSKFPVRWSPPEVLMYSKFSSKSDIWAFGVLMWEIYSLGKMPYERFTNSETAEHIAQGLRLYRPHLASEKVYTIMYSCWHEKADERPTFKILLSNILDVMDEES
The experiment in a line: BTK activity inhibition assay (HTRF kinase assay). It is filed as biochemical. As to conditions: 40 μM ATP. The protocol:
In vitro kinase assay was used to evaluate the effects of compounds of the present invention on BTK activity (Table 1).
By using the homogeneous time-resolved fluorescence (HTRF) kinase detection kit (Cisbio, catalog number 62TK0PEC), the enzymatic activity of BTK is determined by detecting the phosphorylation level of the substrate in the kinase reaction. […]
(§1) Add 4 μL test compound solution and 2 μL kinase reaction solution to a 384-well detection plate (Corning, catalog number 3674), mix well and incubate at room temperature for 15 minutes; add 4 μL substrate reaction solution and incubate for 50 minutes; add 10 μL detection buffer, mix well and stand for 60 minutes; detect signal at 620 nm and 665 nm using an Envision plate reader (Perkin Elmer). The signal value (absorbance at 665 nm/absorbance at 620 nm) is positively correlated with the degree of phosphorylation of the substrate, thereby detecting the kinase activity of BTK. […] The inhibition curve is plotted and the corresponding IC50 value of the test compound is calculated using XLfit software (ID Business Solutions Ltd., UK).
(In general: Time-resolved FRET reads energy transfer from a long-lived donor to a nearby acceptor.)

Data set [2] is described as follows: Brain penetration activity test in rats. It is filed as in vivo. Particulars: for Brain penetration (result in words): male Sprague Dawley rats, oral 5 mg/kg; for Kp at 8 h: male, Sprague Dawley, rat, brain tissue homogenate / plasma, po, 5 mg/kg, AUCbrain/AUCplasma, samples at 1, 2, 4 and 8 hours. The protocol: “CSF/plasma ratio (Kp, CSF)” refers to the ratio of a compound concentration in cerebrospinal fluid (CSF) vs. in plasma. The ability of a compound to cross blood-brain barrier (BBB) is assessed by measuring its concentrations in CSF and plasma in rodents, and determining the ratio (Kp, CSF).
Compound A or B in a 0.5 mg/mL solution containing 5% N,N-dimethylacetamide+10% solutol+85% saline was orally administered to twelve male Sprague Dawley rats at a dose of 5 mg/kg. Samples of plasma, brain tissue homogenate (for measuring Kp, brain) and cerebrospinal fluid (for measuring Kp, CSF) were collected at 1, 2, 4 and 8 hours after administration (from three animals at each time point).
The concentrations of the compound in plasma, brain tissue homogenate, and CSF were quantified by LC-MS/MS using an API-4500 mass spectrometer, respectively. The limit of quantification (LOQ) of analysis was 1 ng/mL. The pharmacokinetic (PK) parameters were calculated by the non-compartmental method using WinNonlin. Each of Kp, brain and Kp, CSF was calculated as AUCbrain/AUCplasma and AUCCSF/AUCplasma, respectively.

Data set [3] has as its target T2, human recombinant BTK C481S protein (Homo sapiens, UniProt Q06187, C481S).
T2 construct: made in house
The experiment in a line: BTK C481S activity inhibition assay (HTRF kinase assay). Type of data set: biochemical. As to conditions: 35 μM ATP. The protocol:
In vitro kinase assay was used to evaluate the effects of compounds of the present invention on BTK C481S activity (Table 1).
By using the homogeneous time-resolved fluorescence (HTRF) kinase detection kit (Cisbio, catalog number 62TK0PEC), the enzymatic activity of BTK C481S is determined by detecting the phosphorylation level of the substrate in the kinase reaction. […]
as §1, with “BTK C481S.” for “BTK.”

T2 sequence (Q06187 whole entry C481S): as the sequence (Q06187 whole entry) above, with C481S counted along it

`COc1ccc(F)cc1C(=O)NCc1ccc(-c2nc(C34CCC(C(=O)N5CCOCC5)(CC3)CC4)n3ncnc(N)c23)cc1` [Compound B, N-(4-(4-amino-7-(4-(morpholine-4-carbonyl)bicyclo[2.2.2]octan-1-yl)imidazo[5,1-f][1,2,4]triazin-5-yl)benzyl)-5-fluoro-2-methoxybenzamide]: the IC50 in data set [1] worked out at 1 nM. Further, in data set [2], the “Brain penetration (result in words)” value is listed as “non-brain penetrants” and the Kp at 8 h was 0.0315. Further, the IC50 in data set [3] is 1.2 nM.
The corresponding values for `COc1ccc(F)cc1C(=O)NCc1ccc(-c2nc(C34CCC(C(=O)O)(CC3)CC4)n3ncnc(N)c23)cc1` [Compound A, 4-(4-amino-5-(4-((5-fluoro-2-methoxybenzamido)methyl)phenyl)imidazo[5,1-f][1,2,4]triazin-7-yl)bicyclo[2.2.2]octane-1-carboxylic acid] are 0.7 nM, “non-brain penetrants”, 0.0355 and 1.3 nM.
